Measurements: ChEMBL document CHEMBL1148124, “New lanostanoids, elfvingic acids A-H, from the fruit body of Elfvingia applanata” (J Nat Prod, 2002)
Values after ≈ are worked out from the molar mass of the structure shown.

Columns and labels:
[1] = Cytotoxicity against human KATO III cells after 72 hrs by MTT assay; assay type: functional, cell-based, KATO III cell
Ehrlich = experiment: Cytotoxicity against mouse Ehrlich cells after 72 hrs by MTT assay; assay type: functional, cell-based

Row | Structure (SMILES) | IC50 [1] [µg/mL] | IC50 (Ehrlich) [µg/mL]
1 | C=C(C)[C@@H]1C[C@H]2O[C@@]23C(=CC(=O)[C@]2(C)[C@@H](/C(C)=C\C(O)CC(C)C(=O)O)C[C@@H](O)[C@]23C)[C@@]1(C)CCC(=O)OC (some centres undefined) | 1.1 (≈ 2.02 µM) | 1.1 (≈ 2.02 µM)
2 | CC(C)c1cccc(=O)c(O)c1 [HINOKITIOL] | 0.6 (≈ 3.65 µM) | 0.6 (≈ 3.65 µM)
